From ChEMBL document CHEMBL3301562, “MMV Box screening against Plasmodium falciparum protein kinases and aminoacyl tRNA synthetases”

How the values were obtained:
Type in all cases: functional
[1] = target: T1, Cdk-related protein kinase 6 (Plasmodium falciparum, UniProt O77239); assay: Final concentrations were 1.5 uM ATP, 5 mM MnCl2, and 15 ug/ml PK6 in a buffer of 100 mM Tris-HCl (pH 7.5). 50 ug/mL MBP was provided as the substrate; 10 uM staurosporine was used as a control inhibitor. Incubation time was 3 hours and 40 minutes.The catalytic activity of each kinase was considered proportional to ATP consumed, as determined from measurements of residual [ATP] with the luciferase-based reagent Kinase-Glo (Promega) following incubation. Luminescence (proportional to residual [ATP]) was measured on the plate readers FLx800 (BioTek Instruments, Winooski, VT, USA) and MicroBeta2.
T1 sequence (O77239 whole entry): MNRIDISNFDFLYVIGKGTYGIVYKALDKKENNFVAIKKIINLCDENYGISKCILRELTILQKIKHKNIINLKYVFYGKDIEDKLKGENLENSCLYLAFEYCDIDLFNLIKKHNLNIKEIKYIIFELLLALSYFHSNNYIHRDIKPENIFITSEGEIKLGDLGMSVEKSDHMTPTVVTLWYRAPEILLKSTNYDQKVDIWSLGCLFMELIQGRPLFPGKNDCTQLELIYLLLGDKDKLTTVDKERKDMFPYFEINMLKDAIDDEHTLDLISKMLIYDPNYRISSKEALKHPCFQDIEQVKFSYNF

[2] = target: T2, Putative uncharacterized protein pk7 (Plasmodium falciparum, UniProt O96214); assay: Final concentrations were 1 uM ATP, 2 mM DTT, 20 mM MgCl2, 2 mM MnCl2, 0.01% BSA, and 6 ug/ml PK7, in a buffer of 20 mM Tris-HCl (pH 7.5). The enzyme itself was the only substrate present (since autophosphorylation occurs); 100 uM 1NA-PP1 was used as a control inhibitor. Incubation time was 3 hours.
T2 sequence (O96214 whole entry): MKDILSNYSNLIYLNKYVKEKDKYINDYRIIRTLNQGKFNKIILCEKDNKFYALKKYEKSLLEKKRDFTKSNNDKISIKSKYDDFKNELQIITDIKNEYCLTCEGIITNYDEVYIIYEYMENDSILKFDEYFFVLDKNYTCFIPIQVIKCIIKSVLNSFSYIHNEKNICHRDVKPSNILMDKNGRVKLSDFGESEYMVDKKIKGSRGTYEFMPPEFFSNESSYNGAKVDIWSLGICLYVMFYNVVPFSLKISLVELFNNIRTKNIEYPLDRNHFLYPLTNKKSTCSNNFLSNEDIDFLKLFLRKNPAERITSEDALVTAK

[3] = target: T3, Mitogen-activated protein kinase (Plasmodium falciparum, UniProt Q25917); assay: Final concentrations were 1 uM ATP, 0.5 mM DTT, 1 mM MgCl2, 0.5 mg/mL BSA, and 10 ug/ml MAP2 in a buffer of 50 mM HEPES (pH 7.0). 0.5 mg/mL histone III-S served as the substrate (13); 100 uM AMP-PNP, an ATP analog, was used as a control inhibitor. Incubation time was 4 hours.
T3 sequence (Q25917 whole entry): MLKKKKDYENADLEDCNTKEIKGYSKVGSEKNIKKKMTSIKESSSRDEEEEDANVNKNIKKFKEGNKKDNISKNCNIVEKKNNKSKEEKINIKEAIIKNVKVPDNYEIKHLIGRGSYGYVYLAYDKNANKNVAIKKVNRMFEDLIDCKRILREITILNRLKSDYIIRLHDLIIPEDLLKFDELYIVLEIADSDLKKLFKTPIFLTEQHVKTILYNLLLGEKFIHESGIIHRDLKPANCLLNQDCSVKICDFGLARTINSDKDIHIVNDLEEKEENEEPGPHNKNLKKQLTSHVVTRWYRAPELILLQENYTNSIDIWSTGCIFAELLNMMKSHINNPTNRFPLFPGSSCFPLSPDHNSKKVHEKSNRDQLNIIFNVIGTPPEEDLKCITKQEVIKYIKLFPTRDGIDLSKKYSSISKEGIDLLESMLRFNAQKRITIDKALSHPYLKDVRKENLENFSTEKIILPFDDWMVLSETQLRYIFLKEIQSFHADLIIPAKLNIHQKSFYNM

[4] = target: Calcium-dependent protein kinase 1 (Plasmodium falciparum, UniProt P62344); assay: MMV: CDPK1 Protein kinase inhibition assay using recombinant PfCDPK1, syntide 2 peptide substrate, ATP and KinaseGlo to measure % inhibition at 1 uM MMV box compound.
Calcium-dependent protein kinase 1, sequence (P62344 whole entry): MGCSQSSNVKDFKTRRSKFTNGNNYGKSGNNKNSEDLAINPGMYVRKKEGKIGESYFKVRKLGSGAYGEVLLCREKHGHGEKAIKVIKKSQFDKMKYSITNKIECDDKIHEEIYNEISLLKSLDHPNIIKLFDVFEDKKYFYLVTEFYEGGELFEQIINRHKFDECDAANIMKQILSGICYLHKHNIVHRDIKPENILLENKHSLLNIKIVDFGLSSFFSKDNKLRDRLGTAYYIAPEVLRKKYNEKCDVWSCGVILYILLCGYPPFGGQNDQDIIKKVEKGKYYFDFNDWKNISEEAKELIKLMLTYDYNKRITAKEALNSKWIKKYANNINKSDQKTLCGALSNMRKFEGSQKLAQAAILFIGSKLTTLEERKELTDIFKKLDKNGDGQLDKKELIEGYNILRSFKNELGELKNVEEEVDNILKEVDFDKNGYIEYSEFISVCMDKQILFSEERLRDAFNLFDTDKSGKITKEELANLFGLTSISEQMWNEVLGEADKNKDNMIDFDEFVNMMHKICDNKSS

[5] = target: T4, Calcium-dependent protein kinase 4 (Plasmodium falciparum (isolate 3D7), UniProt Q8IBS5); assay: MMV: CDPK4 Protein kinase inhibition assay using recombinant PfCDPK4, syntide2 peptide substrate, ATP and KinaseGlo to measure % inhibition at 1 uM MMV box compound.
T4 sequence (Q8IBS5 whole entry): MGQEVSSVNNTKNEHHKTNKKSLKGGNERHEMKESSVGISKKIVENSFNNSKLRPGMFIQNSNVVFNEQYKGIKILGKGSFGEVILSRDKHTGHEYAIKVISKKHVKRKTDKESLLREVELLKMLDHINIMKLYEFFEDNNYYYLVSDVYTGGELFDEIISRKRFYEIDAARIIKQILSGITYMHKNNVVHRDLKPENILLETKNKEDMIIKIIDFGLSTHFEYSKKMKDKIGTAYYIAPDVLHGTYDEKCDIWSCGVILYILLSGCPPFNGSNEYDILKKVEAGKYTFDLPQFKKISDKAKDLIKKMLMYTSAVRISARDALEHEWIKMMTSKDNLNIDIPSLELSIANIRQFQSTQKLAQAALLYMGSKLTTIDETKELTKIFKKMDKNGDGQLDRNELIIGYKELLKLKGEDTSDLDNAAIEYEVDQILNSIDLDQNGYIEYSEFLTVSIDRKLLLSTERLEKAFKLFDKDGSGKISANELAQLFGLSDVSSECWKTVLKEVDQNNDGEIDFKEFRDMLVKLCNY

Proline--tRNA ligase = target: T5, Proline--tRNA ligase (Plasmodium falciparum (isolate 3D7), UniProt Q8I5R7); assay: MMV: ProRS recombinant Plasmodium falciparum Prolyl-tRNA-synthetase, assay with yeast tRNA, ATP, and proline and 3 uM MMV malaria box compound, assay read out with kinase glo as % inhibition.
T5 sequence (Q8I5R7 whole entry): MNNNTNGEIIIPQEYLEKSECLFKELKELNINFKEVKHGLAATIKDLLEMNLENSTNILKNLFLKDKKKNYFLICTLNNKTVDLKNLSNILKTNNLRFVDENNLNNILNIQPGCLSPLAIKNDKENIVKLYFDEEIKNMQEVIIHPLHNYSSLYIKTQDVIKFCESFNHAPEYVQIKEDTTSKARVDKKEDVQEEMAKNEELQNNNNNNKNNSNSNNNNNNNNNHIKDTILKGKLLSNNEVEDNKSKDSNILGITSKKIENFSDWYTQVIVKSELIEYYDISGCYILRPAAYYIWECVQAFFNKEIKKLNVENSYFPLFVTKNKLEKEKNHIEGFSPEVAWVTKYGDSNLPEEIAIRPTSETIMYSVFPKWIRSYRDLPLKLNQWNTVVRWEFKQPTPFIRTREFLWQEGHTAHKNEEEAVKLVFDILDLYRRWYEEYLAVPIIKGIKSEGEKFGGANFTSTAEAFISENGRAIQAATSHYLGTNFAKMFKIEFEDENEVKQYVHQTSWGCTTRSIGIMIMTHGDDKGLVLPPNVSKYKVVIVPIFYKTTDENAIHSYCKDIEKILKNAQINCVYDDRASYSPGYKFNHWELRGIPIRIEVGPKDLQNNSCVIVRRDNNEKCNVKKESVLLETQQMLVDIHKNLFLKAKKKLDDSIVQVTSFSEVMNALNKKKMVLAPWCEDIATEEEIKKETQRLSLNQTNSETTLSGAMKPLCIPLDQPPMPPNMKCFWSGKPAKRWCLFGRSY

Lysine--tRNA ligase = Lysine--tRNA ligase (Plasmodium falciparum (isolate 3D7), UniProt Q8IDJ8); assay: MMV: KRS recombinant Plasmodium falciparum Lysyl-tRNA-synthetase, assay with yeast tRNA, ATP, and lysine and 3 uM MMV malaria box compound, assay read out with kinase glo as % inhibition.
Lysine--tRNA ligase, sequence (Q8IDJ8 whole entry): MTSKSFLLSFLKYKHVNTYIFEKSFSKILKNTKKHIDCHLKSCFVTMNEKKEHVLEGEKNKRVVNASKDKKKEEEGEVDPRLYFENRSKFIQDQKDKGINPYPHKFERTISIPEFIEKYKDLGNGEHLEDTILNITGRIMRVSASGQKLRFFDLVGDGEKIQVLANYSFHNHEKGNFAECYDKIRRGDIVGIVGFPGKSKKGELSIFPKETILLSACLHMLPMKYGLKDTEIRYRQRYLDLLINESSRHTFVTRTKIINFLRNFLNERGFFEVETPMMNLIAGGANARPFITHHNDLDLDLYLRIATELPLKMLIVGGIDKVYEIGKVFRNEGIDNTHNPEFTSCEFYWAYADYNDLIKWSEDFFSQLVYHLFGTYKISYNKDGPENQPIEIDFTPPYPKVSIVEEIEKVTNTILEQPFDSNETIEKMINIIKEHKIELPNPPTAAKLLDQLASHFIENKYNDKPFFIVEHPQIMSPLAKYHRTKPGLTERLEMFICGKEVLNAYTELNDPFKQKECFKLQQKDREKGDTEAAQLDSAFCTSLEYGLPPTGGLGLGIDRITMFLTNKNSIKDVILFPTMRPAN

SMILES | IC50 [1] | IC50 [2] | IC50 [3] | IC50 [4] | IC50 [5] | IC50 (Proline--tRNA ligase) | IC50 (Lysine--tRNA ligase)
O=C(NC1CCN(Cc2ccccc2)CC1)c1cc(-c2cccnc2)nc2ccc(Cl)cc12 | > 1 µM | > 1 µM | > 1 µM | > 1 µM | > 1 µM | > 2.5 µM | > 2.5 µM
COc1ccc(-c2nonc2NC(=O)c2cccc(Cl)c2)cc1OC | > 1 µM | > 1 µM | > 1 µM | > 1 µM | > 1 µM | > 2.5 µM | > 2.5 µM
Cc1cc(NC(=O)c2ccc(-c3ccccc3)cc2)no1 | > 1 µM | > 1 µM | > 1 µM | > 1 µM | > 1 µM | > 2.5 µM | > 2.5 µM
O=C1CC(O)(C(F)(F)C(F)(F)F)Oc2ccccc21 (configuration not stated) | > 1 µM | > 1 µM | > 1 µM | > 1 µM | > 1 µM | > 2.5 µM | > 2.5 µM
COc1cc(SC)ccc1C(=O)N1CCCC(C)C1 (configuration not stated) | > 1 µM | > 1 µM | > 1 µM | > 1 µM | > 1 µM | > 2.5 µM | > 2.5 µM
Cc1ccc(NC(=O)Nc2cccc(Cl)c2)cc1F | > 1 µM | > 1 µM | > 1 µM | > 1 µM | > 1 µM | > 2.5 µM | > 2.5 µM
O=c1nc(C=Cc2ccc(Cl)cc2)oc2ccccc12 | > 1 µM | > 1 µM | > 1 µM | > 1 µM | > 1 µM | > 2.5 µM | > 2.5 µM
O=C(NCc1ccco1)C1CCN(S(=O)(=O)c2ccc(Br)cc2)CC1 | > 1 µM | > 1 µM | > 1 µM | > 1 µM | > 1 µM | > 2.5 µM | > 2.5 µM
COc1ccc(Nc2nc(NCc3ccccc3)c3ccccc3n2)cc1 | > 1 µM | > 1 µM | > 1 µM | > 1 µM | > 1 µM | > 2.5 µM | > 2.5 µM
COc1cc2c(cc1OC)C1=NNC(=O)C1=NC(C)(C)C2 | > 1 µM | > 1 µM | > 1 µM | > 1 µM | > 1 µM | > 2.5 µM | > 2.5 µM
CCOc1ccc(CCNC(=O)c2cccs2)cc1OCC | > 1 µM | > 1 µM | > 1 µM | > 1 µM | > 1 µM | > 2.5 µM | > 2.5 µM
